Source: patent US8397806B2, “Method for pre-treatment of subterranean sites adjacent to water injection wells” (E.I. du Pont de Nemours and Company, priority 2010, dated 2013)

How the values were obtained:
[1] = Example 5: 10% acetic acid titration of amine-coated core sand (30.85 gr sand/amine mixture) in 100 ml brine #2, amine in solution by GC
Description: (§1) Concentration of amines, in media and water, were analyzed by gas chromatography (GC). An Agilent Model 5890 (Agilent, Wilmington, Del.), GC equipped with a […] and a split/splitless injector, a DB-FFAP column (30 meter length×0.32 millimeter (mm) […]×0.25 micrometer particle size). […] The system was calibrated using a sample of N,N-Dimethyl-1-Dodecaneamine (Aldrich). Helium was used as the carrier gas. A temperature gradient of 50 degrees Celsius (° C.) to 250° C. at 30° C. increase per minute (min) was used.
The same procedure outlined in Example 4 was repeated here to produce the sand/amine mixture. 30.85 grams (gr) of the sand/amine mixture was added to 100 ml of brine #2 (Table 3) to create the sand/amine/brine mixture.

[2] = Example 2: 1N HCl titration of amine-coated core sand (38 mg amine on 10.18 gr sand) in 100 ml brine #2, amine in solution by GC; format: physicochemical
Description: Helium was used as the carrier gas.
38 milligrams (mg) of N N-Dimethyl-1-Dodecanamine (hereafter referred to as “the amine”) was added to 10.210 gr of Pentane. This solution was added to 10.1845 gr of specific sand layers (Oa and Ob) obtained from the Schrader Bluff formation of the Milne Point Unit of the Alaskan North slope. The oil content of the sand was first removed using a mixture of methanol and toluene (50/50, volume/volume) as solvent washes. The solvent mixture was subsequently evaporated off the core sand to produce clean, dry, flowable core sand. This sand was mixed with the amine and pentane solution to produce a slurry. This slurry was thoroughly mixed and the pentane was evaporated off leaving the amine on the sand (hereafter referred to as sand/amine mixture). 100 ml of brine #2 (Table 3) was added to the sand/amine mixture to create the sand/amine/brine mixture. […] The fact that the amine was not detected underlined its strong binding to the sand particles. […] The data underlines the remarkable efficiency of an acid at ionizing and removing the amine from the sand.

[3] = Example 4: 10% nitric acid titration of amine-coated core sand (29.065 gr sand/amine mixture) in 100 ml brine #2, amine in solution by GC
Description: as §1
The procedure outlined in Example 2 was used to produce the sand/amine mixture except that 519 mg of the amine, 10 gr of Pentane. and 60.062 gr of sand from the Oa and Ob layers were used. 29.065 gr of this sand/amine mixture was added to 100 ml of brine #2 (Table 3) to create the sand/amine/brine mixture. […] The concentration of the amine in the water should have been about […] if all the amine was dissolved in brine #2. […] 0.1 ml of 10 weight percent (wt %) nitric acid in water was added to this solution, and the pH and the amine concentration were measured again.

CCCCCCCCCCCCN(C)C [N-N-dimethyl-1-dodeanamine, N N-Dimethyl-1-Dodecanamine]
ppm N-N-dimethyl-1-dodeanamine ([1]; sample 1, pH 8.01, +0.1 ml 10% acetic acid): 63 ppm | ppm N-N-dimethyl-1-dodeanamine ([1]; sample 2, pH 7.41, +0.1 ml 10% acetic acid): 107 ppm | ppm N-N-dimethyl-1-dodeanamine ([1]; sample 3, pH 7.4, +0.1 ml 10% acetic acid): 215 ppm | ppm N-N-dimethyl-1-dodeanamine ([1]; sample 4, pH 7.37, +0.1 ml 10% acetic acid): 497 ppm | ppm N-N-dimethyl-1-dodeanamine ([1]; sample 5, pH 7.23, +0.1 ml 10% acetic acid): 512 ppm | ppm N-N-dimethyl-1-dodeanamine ([1]; sample 6, pH 7.12, +0.1 ml 10% acetic acid): 969 ppm | ppm N-N-dimethyl-1-dodeanamine ([1]; sample 7, pH 6.98, +0.1 ml 10% acetic acid): 1239 ppm | ppm N-N-dimethyl-1-dodeanamine ([1]; sample 8, pH 6.89, +0.1 ml 10% acetic acid): 1453 ppm | ppm N-N-dimethyl-1-dodeanamine ([1]; sample 9, pH 6.75, +0.1 ml 10% acetic acid): 1583 ppm | ppm N-N-dimethyl-1-dodeanamine ([1]; sample 10, pH 6.56, +0.1 ml 10% acetic acid): 1579 ppm | ppm N-N-dimethyl-1-dodeanamine ([1]; sample 11, pH 6.39, +0.1 ml 10% acetic acid): 1616 ppm | ppm N-N-dimethyl-1-dodeanamine ([1]; sample 12, pH 6.4, +0.1 ml 10% acetic acid): 1759 ppm | ppm N-N-dimethyl-1-dodeanamine ([1]; sample 13, pH 6.02, +0.2 ml 10% acetic acid): 1736 ppm | ppm N-N-dimethyl-1-dodeanamine ([1]; sample 14, pH 5.4, +0.2 ml 10% acetic acid): 1718 ppm | ppm N-N-dimethyl-1-dodeanamine ([1]; sample 15, pH 5.04, +0.2 ml 10% acetic acid): 1743 ppm | ppm N-N-dimethyl-1-dodeanamine ([1]; sample 16, pH 4.86, +0.2 ml 10% acetic acid): 1931 ppm | ppm N-N-dimethyl-1-dodeanamine ([1]; sample 17, pH 4.73, +0.2 ml 10% acetic acid): 1995 ppm | ppm N-N-dimethyl-1-dodeanamine ([1]; sample 18, pH 4.61, +0.2 ml 10% acetic acid): 1913 ppm | ppm N-N-dimethyl-1-dodeanamine ([1]; sample 19, pH 4.52, +0.2 ml 10% acetic acid): 1881 ppm | ppm N-N-dimethyl-1-dodeanamine ([1]; sample 20, pH 4.43, +0.2 ml 10% acetic acid): 1837 ppm | ppm N-N-dimethyl-1-dodeanamine ([1]; sample 21, pH 4.36, +0.3 ml 10% acetic acid): 1885 ppm | ppm N-N-dimethyl-1-dodeanamine ([1]; sample start, pH 8.52, 0 ml 10% acetic acid): ~67 ppm | pH at which complete ionization and solubilization in the water of the amine was observed ([1]; titration with 10 wt % acetic acid): < 6.7 | First derivative (change in amine/change in pH) ([2]; sample Amine titrate 1, pH 7.37): 63.75 | N-N-dimethyl-1-dodeanamine (ppm) in slim tube effluent ([2]; sample Amine titrate 1, pH 7.37, +0.10 ml 1N HCl): 46.41 ppm | First derivative (change in amine/change in pH) ([2]; sample Amine titrate 2, pH 7.21): 63.42 | N-N-dimethyl-1-dodeanamine (ppm) in slim tube effluent ([2]; sample Amine titrate 2, pH 7.21, +0.10 ml 1N HCl): 59.29 ppm | First derivative (change in amine/change in pH) ([2]; sample Amine titrate 3, pH 7.03): 24.34 | N-N-dimethyl-1-dodeanamine (ppm) in slim tube effluent ([2]; sample Amine titrate 3, pH 7.03, +0.10 ml 1N HCl): 67.97 ppm | First derivative (change in amine/change in pH) ([2]; sample Amine titrate 4, pH 6.59): 160.35 | N-N-dimethyl-1-dodeanamine (ppm) in slim tube effluent ([2]; sample Amine titrate 4, pH 6.59, +0.10 ml 1N HCl): 74.38 ppm | First derivative (change in amine/change in pH) ([2]; sample Amine titrate 5, pH 6.13): 412.18 | N-N-dimethyl-1-dodeanamine (ppm) in slim tube effluent ([2]; sample Amine titrate 5, pH 6.13, +0.10 ml 1N HCl): 212.28 ppm | First derivative (change in amine/change in pH) ([2]; sample Amine titrate 6, pH 6.07): 679.86 | N-N-dimethyl-1-dodeanamine (ppm) in slim tube effluent ([2]; sample Amine titrate 6, pH 6.07, +0.10 ml 1N HCl): 288.72 ppm | First derivative (change in amine/change in pH) ([2]; sample Amine titrate 7, pH 6.04): −148.78 | N-N-dimethyl-1-dodeanamine (ppm) in slim tube effluent ([2]; sample Amine titrate 7, pH 6.04, +0.05 ml 1N HCl): 273.47 ppm | First derivative (change in amine/change in pH) ([2]; sample Amine titrate 8, pH 5.98): 119.35 | N-N-dimethyl-1-dodeanamine (ppm) in slim tube effluent ([2]; sample Amine titrate 8, pH 5.98, +0.05 ml 1N HCl): 275.33 ppm | First derivative (change in amine/change in pH) ([2]; sample Amine titrate 9, pH 5.79): 65.90 | N-N-dimethyl-1-dodeanamine (ppm) in slim tube effluent ([2]; sample Amine titrate 9, pH 5.79, +0.05 ml 1N HCl): 303.31 ppm | First derivative (change in amine/change in pH) ([2]; sample Amine titrate 10, pH 5.39): 15.17 | N-N-dimethyl-1-dodeanamine (ppm) in slim tube effluent ([2]; sample Amine titrate 10, pH 5.39, +0.05 ml 1N HCl): 314.21 ppm | First derivative (change in amine/change in pH) ([2]; sample Amine titrate 11, pH 4.13): 3.24 | N-N-dimethyl-1-dodeanamine (ppm) in slim tube effluent ([2]; sample Amine titrate 11, pH 4.13, +0.05 ml 1N HCl): 328.48 ppm | First derivative (change in amine/change in pH) ([2]; sample Amine titrate 12, pH 3.19): 11.80 | N-N-dimethyl-1-dodeanamine (ppm) in slim tube effluent ([2]; sample Amine titrate 12, pH 3.19, +0.05 ml 1N HCl): 321.33 ppm | First derivative (change in amine/change in pH) ([2]; sample Amine titrate 13, pH 2.91): 47.42 | N-N-dimethyl-1-dodeanamine (ppm) in slim tube effluent ([2]; sample Amine titrate 13, pH 2.91, +0.05 ml 1N HCl): 342.88 ppm | First derivative (change in amine/change in pH) ([2]; sample Amine titrate 14, pH 2.74): −6.52 | N-N-dimethyl-1-dodeanamine (ppm) in slim tube effluent ([2]; sample Amine titrate 14, pH 2.74, +0.05 ml 1N HCl): 342.67 ppm | First derivative (change in amine/change in pH) ([2]; sample Amine titrate 15, pH 2.61): 79.86 | N-N-dimethyl-1-dodeanamine (ppm) in slim tube effluent ([2]; sample Amine titrate 15, pH 2.61, +0.05 ml 1N HCl): 340.92 ppm | First derivative (change in amine/change in pH) ([2]; sample Amine titrate 16, pH 2.41): 80.22 | N-N-dimethyl-1-dodeanamine (ppm) in slim tube effluent ([2]; sample Amine titrate 16, pH 2.41, +0.10 ml 1N HCl): 369.02 ppm | First derivative (change in amine/change in pH) ([2]; sample Amine titrate 17, pH 2.27): 2.25 | N-N-dimethyl-1-dodeanamine (ppm) in slim tube effluent ([2]; sample Amine titrate 17, pH 2.27, +0.10 ml 1N HCl): 368.19 ppm | First derivative (change in amine/change in pH) ([2]; sample Amine titrate 18, pH 2.18): 7.51 | N-N-dimethyl-1-dodeanamine (ppm) in slim tube effluent ([2]; sample Amine titrate 18, pH 2.18, +0.10 ml 1N HCl): 369.54 ppm | First derivative (change in amine/change in pH) ([2]; sample Amine titrate 19, pH 2.10): 0.12 | N-N-dimethyl-1-dodeanamine (ppm) in slim tube effluent ([2]; sample Amine titrate 19, pH 2.10, +0.10 ml 1N HCl): 369.47 ppm | N-N-dimethyl-1-dodeanamine (ppm) in slim tube effluent ([2]; sample Amine titrate 20, pH 2.04, +0.10 ml 1N HCl): 369.56 ppm | N-N-dimethyl-1-dodeanamine (ppm) in slim tube effluent ([2]; sample Amine titrate st, pH 8.14, 0.00 ml 1N HCl): 0.00 ppm | N-N-dimethyl-1-dodeanamine (ppm) in slim tube effluent ([2]; sample Amine titrate st, pH 8.14, 0.00 ml 1N HCl, listed as N N-Dimethyl-1-Dodecanamine): < 1 ppm | pH at which complete ionization and solubilization of the amine in the water was observed ([2]; titration with 1N HCl): < 6.0 | ppm N-N-dimethyl-1-dodeanamine ([3]; sample 1, pH 8.13, +0.1 ml 10% HNO3): 110 ppm | ppm N-N-dimethyl-1-dodeanamine ([3]; sample 2, pH 7.72, +0.1 ml 10% HNO3): 211 ppm | ppm N-N-dimethyl-1-dodeanamine ([3]; sample 3, pH 7.42, +0.1 ml 10% HNO3): 216 ppm | ppm N-N-dimethyl-1-dodeanamine ([3]; sample 4, pH 7.25, +0.1 ml 10% HNO3): 235 ppm | ppm N-N-dimethyl-1-dodeanamine ([3]; sample 5, pH 7.2, +0.1 ml 10% HNO3): 540 ppm | ppm N-N-dimethyl-1-dodeanamine ([3]; sample 6, pH 7.29, +0.1 ml 10% HNO3): 745 ppm | ppm N-N-dimethyl-1-dodeanamine ([3]; sample 7, pH 7.33, +0.1 ml 10% HNO3): 1153 ppm | ppm N-N-dimethyl-1-dodeanamine ([3]; sample 8, pH 7.29, +0.1 ml 10% HNO3): 1210 ppm | ppm N-N-dimethyl-1-dodeanamine ([3]; sample 9, pH 7.18, +0.1 ml 10% HNO3): 1327 ppm | ppm N-N-dimethyl-1-dodeanamine ([3]; sample 10, pH 7.11, +0.1 ml 10% HNO3): 1315 ppm | ppm N-N-dimethyl-1-dodeanamine ([3]; sample 11, pH 6.99, +0.1 ml 10% HNO3): 1413 ppm | ppm N-N-dimethyl-1-dodeanamine ([3]; sample 12, pH 6.85, +0.1 ml 10% HNO3): 1667 ppm | ppm N-N-dimethyl-1-dodeanamine ([3]; sample 13, pH 6.73, +0.1 ml 10% HNO3): 1897 ppm | ppm N-N-dimethyl-1-dodeanamine ([3]; sample 14, pH 6.64, +0.1 ml 10% HNO3): 1853 ppm | ppm N-N-dimethyl-1-dodeanamine ([3]; sample 15, pH 6.59, +0.1 ml 10% HNO3): 1858 ppm | ppm N-N-dimethyl-1-dodeanamine ([3]; sample 16, pH 6.28, +0.2 ml 10% HNO3): 1788 ppm | ppm N-N-dimethyl-1-dodeanamine ([3]; sample 17, pH 5.8, +0.2 ml 10% HNO3): 1822 ppm | ppm N-N-dimethyl-1-dodeanamine ([3]; sample 18, pH 3.46, +0.2 ml 10% HNO3): 1975 ppm | ppm N-N-dimethyl-1-dodeanamine ([3]; sample start, pH 8.28, 0 ml 10% HNO3): ~85 ppm | pH at which complete ionization and solubilization in the water of the amine was observed ([3]; titration with 10 wt % nitric acid): < 6.7
